Test [1] deals with allergic airway inflammation. The test can be described thus: mouse model of allergic airway inflammation (OVA/Alum sensitization, OVA aerosol challenge): BAL cells and lung sections. The format is in vivo, mouse (BALB/c). Here is the method: Female BALB/c mice (Charles River, Sulzfeld, Germany) aged 7-8 weeks were used and acclimated to the animal facility for 14 days prior to experiments. Animals had access to food and water ad libitum. All experimental procedures were approved by the responsible animal ethics committees. Mice were sensitized by intraperitoneal injection of 20 μg ovalbumin (OVA; GradeV; Sigma, St. Louis, Mo.) emulsified in 2.2 mg aluminum hydroxide (ImjectAlum; Pierce, Rockford, Ill.) in a total volume of 200 μl on days 1 and 14. On days 28 and 38 mice were challenged via the airways with 1% OVA aerosol for 20 min using a PARI-Boy aerosol generator. Mice were treated with the synthetic substances during the sensitization phase. Substances were administered intranasally in 50 μl of PBS. Mice were treated 14 times beginning on the day of the first OVA injection and the last treatment six days before the second OVA-aerosol challenge. Control groups were sensitized as described above and treated 14 times with phosphate buffered saline (PBS). Three days after OVA challenge lungs were lavaged via a tracheal tube with 2×1 ml PBS, and leukocytes in the lavage fluid were counted. After centrifugation, BAL fluid was frozen for further analysis. […] The percentages of eosinophils, lymphocytes and macrophages in BAL samples were determined by light microscopy. […]

The subject of test [2] is IL-5 and IL-13 production by spleen cells. The test can be described thus: in vitro cytokine production (IL-5, IL-13) of mouse splenocytes re-stimulated with OVA after in vivo treatment. The note with it: FIG. 3, i.n. treatment during sensitization and challenge. The arrangement: species or system mouse (BALB/c). Here is the method: (§1) Mice were sensitized by intraperitoneal injection of 20 μg ovalbumin (OVA; GradeV; Sigma, St. Louis, Mo.) emulsified in 2.2 mg aluminum hydroxide (ImjectAlum; Pierce, Rockford, Ill.) in a total volume of 200 μl on days 1 and 14. On days 28 and 38 mice were challenged via the airways with 1% OVA aerosol for 20 min using a PARI-Boy aerosol generator.
(§2) Mice were treated with the synthetic substances during the sensitization phase. Substances were administered intranasally in 50 μl of PBS. Mice were treated 14 times beginning on the day of the first OVA injection and the last treatment six days before the second OVA-aerosol challenge. Control groups were sensitized as described above and treated 14 times with phosphate buffered saline (PBS).
Spleens were harvested 3 days after the second aerosol challenge. Single cell suspensions were prepared by mechanical disruption and erythrocytes were lysed. Spleen cells were then cultured at a concentration of 5×10^6/ml in complete tissue culture medium (CTCM) (RPMI 1640 with 10% fetal calf serum (FCS), 2 mM L-glutamine, 100 U/ml penicillin, 100 μg/ml streptomycin, all from Biochrom, Berlin, Germany). To stimulate specific cytokine production OVA was added to a final concentration of 50 μg/ml. […] Levels of IL-5 and IL-13 were assessed by using optEIA kits (BD Biosciences, Heidelberg, Germany) according to the manufacturer's instructions.

In another test the test system is IgE. In words: total IgE in BAL fluid by ELISA in OVA/Alum mouse model. The format is in vivo, mouse (BALB/c). Conditions: FIG. 3, i.n. treatment. Here is the method: as §1, §2
Blood was collected by tail vein puncture two days after the second aerosol challenge. BAL was collected as described above. Levels of total IgE in serum or BAL fluid were determined by ELISA (Ebioscience). Levels of BSA-specific IgG1 were determined by indirect ELISA. Briefly, plates were coated with 50 μg/ml BSA followed by blocking with 1% low fat milk powder. The serum was diluted 1/100 in PBS and incubated on the BSA coated wells for 1 h, followed by detection of bound antibodies by alkaline phosphatase coupled rat anti mouse IgG1 (BDbiosciences).
Background: In an ELISA, binding on a coated surface is turned into a signal by an enzyme label.

Consider `OCC1O[C@@H](OCC2O[C@@H](OCC3O[C@@H](OCCCCCc4ccc(N=C=S)cc4)C(O)C(O)[C@H]3O)C(O)C(O[C@H]3O[C@@H](CO[C@@H]4O[C@@H](CO)C(O)C4O)C(O)C3O)[C@H]2O)C(O)C(O)[C@H]1O` (stereo partly shown) [Araf2Galp3], for which the eosinophilic airway inflammation result in test [1] (FIG. 3, i.n. treatment, BAL) is given as “not able to reduce these parameters significantly”. For the same molecule, the goblet cell metaplasia result in test [1] (FIG. 3 experiment, determined in lung sections) is given as “not able to reduce these parameters significantly”. Also, the “Th2 response as measured by in vitro production of IL-5 and IL-13 by spleen cells” value in test [2] is “not able to reduce these parameters significantly”. Also, the IgE production result with IgE is “not able to reduce these parameters significantly”.

The values above are taken from patent US11179407B2, “Method for synthetically producing arabinogalactan compounds derived from plants and uses of said compounds for the prophylaxis of allergic reactions” (Forschungszentrum Borstel Leibniz-Zentrum für Medizin und …, priority 2015, dated 2021).
